In patent US8685655B2, “Dissociation method and dissociation agent for avidin and biotin derivatives” (JSR Corporation, priority 2009, dated 2014):

How the values were obtained:
[1] = molecular target: T1, streptavidin magnetic particles-desthiobiotin-bound probe molecules-target substance complex (Streptomyces avidinii, UniProt P22629); experiment: Dissociation efficiency: target cells released from the capturing carrier by the dissociation agent (quantitative PCR cell count); conditions: 250 μL dissociation agent liquid in PBS, room temperature, 20 minutes; HT-29 cells isolated / cells bound x 100
T1 construct: purchased Invitrogen Dynabeads M-280 Streptavidin
Method: The number of cells was determined by measuring the quantity of genome DNA according to the quantitative PCR method.
(1) Measurement of the Number of Cells Bound to the Capturing Carrier:
50 μL of 0.8 mg/mL solution of proteinase K (protease, manufactured by Qiagen N.V.) dissolved in 10-mM Tris-HCl buffer solution (pH: 8.3) was added to the total amount of the combination of the capturing carrier and the target cells yielded in the below Examples and Comparative Example, and the resultant was reacted by heating at 55° C. for 15 minutes to elute DNA. Subsequently, this solution was heated at 95° C. for 20 minutes to inactivate proteinase K. 20 μL of the resultant DNA solution was added to 30 μL of a quantitative PCR cocktail (Fast Start Taq, manufactured by Roche (Co.)) to carry out quantitative PCR. Other DNA solutions prepared by the same method using predetermined number of cells were used to prepare a calibration curve. A 7500 Real-Time PCR System, manufactured by Applied Biosystems (Co.), was used for the quantitative PCR.
(2) Measurement of the Number of Cells Isolated from the Capturing Carrier: […]
The efficiency of dissociation of (strept) avidin from the biotin derivative was determined according to the following equation: Efficiency of Dissociation (%)=“the number of the cells isolated from the capturing carrier”/“the number of the cells bound to the capturing carrier”×100
1 mg aliquots of the capturing carrier yielded in Preparation Example 2 were added into test tubes. […] The number of the cells bound to the isolated capturing carrier was measured, and the number was 8,500, which was 85% of the number of the cells used for the Example. […]

avidin = avidin (Gallus gallus, UniProt P02701); conditions: cited from earlier work
Sequence of avidin (P02701 25-152, species assumed): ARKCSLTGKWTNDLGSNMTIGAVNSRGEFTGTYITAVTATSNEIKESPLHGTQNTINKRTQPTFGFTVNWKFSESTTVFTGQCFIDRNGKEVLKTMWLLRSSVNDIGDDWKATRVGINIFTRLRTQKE

T1 sequence (P22629 25-183, one chain of several): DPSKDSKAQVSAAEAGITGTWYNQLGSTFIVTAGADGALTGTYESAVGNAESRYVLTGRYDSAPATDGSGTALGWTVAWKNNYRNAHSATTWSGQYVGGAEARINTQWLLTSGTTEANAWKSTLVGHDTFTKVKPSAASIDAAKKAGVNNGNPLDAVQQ

Row | Compound | Dissociation efficiency (%) [1] [%] | binding constant with avidin (avidin)
1 | O=C(O)CCCC[C@@H]1SC[C@@H]2NC(=O)N[C@@H]21 [Biotin, biotin] | 3 | 10^15 M
2 | BSA-Biotin6: dissociation agent in which six (6) in average of biotin were bound to one molecule of BSA | 70 | 
3 | BSA-Biotin10: dissociation agent in which ten (10) in average of biotin were bound to one molecule of BSA | 96 | 
